Source: paper PMC8296708, “The pan HDAC inhibitor Givinostat improves muscle function and histological parameters in two Duchenne muscular dystrophy murine models expressing different haplotypes of the LTBP4 gene” (Skeletal Muscle, 2021)
Like-named read-outs stand apart in the source and are kept apart here.

Assays:
[1] = Pharmacokinetic study: plasma, blood and quadriceps Givinostat levels after single oral dose (LC-MS/MS); assay type: in vivo, mdx mice (C57BL/10ScSn-Dmd^mdx/J); details: mdx mice; for Kp: quadriceps muscle and plasma
Method: For the PK study, C57BL/10ScSn-Dmd^mdx/J (Stock No: 001801) 9-week-old male mice were purchased from The Jackson Laboratories (Bar Harbor, Maine, USA). After 5 days of acclimatization in the animal facility, mdx mice were randomized into 4 treatment groups (28 mice/group; 4 mice/cage) and 1 untreated group (4 mice) based on their BW. Animals were administered with single oral dose of Givinostat at 5, 10, 25, and 37.5 mg/kg and samples were collected at the following time points: 0.5, 1, 1.5, 2, 3, 4, and 6 h after administration.
In the PK study, formulations were prepared suspending Givinostat in 0.5% methylcellulose at the concentrations of 0.5, 1, 2.5, and 3.75 mg/mL. The administered volume was 10 mL/kg to obtain 5, 10, 25, and 37.5 mg/kg dosages.
Mice were maintained under isoflurane anesthesia. Blood samples were collected in two aliquots from the retro-orbital plexus of mice and transferred into tubes containing heparin as anticoagulant (100 USPunits/mL) and then mice were sacrificed by cervical dislocation. One aliquot of 50 μL was diluted with the same volume of water and immediately frozen in dry ice. This blood was analyzed in order to subtract the blood content of Givinostat from the muscle homogenate. The other aliquot of blood was centrifuged for 10 min at 13,000 rpm at 4 °C and plasma was separated and frozen in dry ice. The quadriceps of the right hindlimb was removed, weighed, and then washed twice in 1 mL of PBS pH 7.4 and dried with paper, then it was frozen in dry ice.
Givinostat was determined in mouse plasma (50 μL) following a protein precipitation (200 μL of 1% HCOOH in acetonitrile) and Ostro (Waters) plate filtration. The organic phase was evaporated under a stream of nitrogen; the residue was re-dissolved in the reconstitution solvent (100 μL of 25% CH3CN-75% H2O-0.05% TFA), and 5 μL was analyzed. Givinostat concentrations were measured by LC-MS/MS method, in the calibration range of 0.5–400 ng/mL.
Givinostat was determined in diluted blood (100 μL, 1:2 in water) with a liquid-liquid extraction. Samples were mixed and extracted with 2 mL of diethyl ether and centrifuged, and the organic phase was separated and evaporated under a stream of nitrogen. The residue was re-dissolved in the reconstitution solvent (150 μL of 25% CH3CN-75% H2O-0.05% TFA), sonicated, and filtered (regenerated cellulose syringe filters), and 5 μL was analyzed by LC-MS/MS method. The calibration range of the method was 1–200 ng/mL.
Mouse quadriceps were homogenized in PBS pH = 7.4 (1:10 w/v) with ultrasonic homogenizer (Sonoplus Mini20 - Bandelin) maintaining the samples in an ice bath. Quadricep homogenate (100 μL) was added with 200 μL of 0.5% TFA in CH3CN, vortexed, and centrifuged. Then, 100 μL of supernatant was diluted with H2O (1:2). Samples were filtered (regenerated cellulose syringe filters) and aliquots of 5 μL were analyzed. Givinostat concentrations were measured by LC-MS/MS method, in the calibration range of 1–40 ng/mL.
PK parameters were evaluated on mean curves using conventional non-compartmental methodology by the software KineticaTM v. 5.1. Quadriceps concentrations were expressed as nanograms per gram of muscle, this value was obtained by multiplying the homogenate concentrations obtained for the homogenate volume, then subtracting the residual blood content, as reported in literature, considering the measured blood concentrations and dividing for the muscle weight.

mdx mice = assay: Histopathological evaluation of severity of myodystrophy in mdx mice; assay type: in vivo, mouse (C57BL/10ScSn-Dmd^mdx/J); details: T16
Method: In these experiments, the histopathological evaluation of muscle inflammatory infiltrate, adipose tissue deposition, regeneration, and degeneration of the muscular tissue was also performed. The severity of myodystrophy in the different muscles (TA, GAS and DIA) was quantified through a weighted histopathological method that considered some parameters scored by severity and extension of the injury: muscle degeneration/necrosis, regeneration, inflammatory infiltrate, interstitial reaction, and adipose tissue deposition. Each parameter was classified by severity (mild = 1, moderate = 2, and severe = 3) and extension (focal = 1, multifocal = 2, and diffuse = 3). The individual severity score was calculated for each animal and an average score per group was calculated.

[2] = male, C57BL/10ScSn-Dmd^mdx/J (mdx), mouse, blood, 5 mg/kg single oral dose
[3] = male, C57BL/10ScSn-Dmd^mdx/J (mdx), mouse, blood, 10 mg/kg single oral dose
[4] = male, C57BL/10ScSn-Dmd^mdx/J (mdx), mouse, blood, 25 mg/kg single oral dose
[5] = male, C57BL/10ScSn-Dmd^mdx/J (mdx), mouse, blood, 37.5 mg/kg single oral dose
[6] = male, C57BL/10ScSn-Dmd^mdx/J (mdx), mouse, plasma, 5 mg/kg single oral dose
[7] = male, C57BL/10ScSn-Dmd^mdx/J (mdx), mouse, plasma, 10 mg/kg single oral dose
[8] = male, C57BL/10ScSn-Dmd^mdx/J (mdx), mouse, plasma, 25 mg/kg single oral dose
[9] = male, C57BL/10ScSn-Dmd^mdx/J (mdx), mouse, plasma, 37.5 mg/kg single oral dose

blood plasma ratio ([1]; male, C57BL/10ScSn-Dmd^mdx/J (mdx), mouse, blood and plasma, 5 mg/kg single oral dose, read-out: AUCtot Blood/Plasma ratio): 1.6
blood plasma ratio ([1]; male, C57BL/10ScSn-Dmd^mdx/J (mdx), mouse, blood and plasma, 25 mg/kg single oral dose, read-out: AUCtot Blood/Plasma ratio): 1.5
blood plasma ratio ([1]; male, C57BL/10ScSn-Dmd^mdx/J (mdx), mouse, blood and plasma, 37.5 mg/kg single oral dose, read-out: AUCtot Blood/Plasma ratio): 1.4
blood plasma ratio ([1]; male, C57BL/10ScSn-Dmd^mdx/J (mdx), mouse, blood and plasma, mean over 5, 10, 25, 37.5 mg/kg oral doses, read-out: AUCtot Blood/Plasma ratio, mean): 1.6
Cmax ([1]; male, C57BL/10ScSn-Dmd^mdx/J (mdx), mouse, blood, po, 5 mg/kg, blood, 5 mg/kg single oral dose, read-out: Cmax): 35.1 ng/mL
Cmax ([1]; male, C57BL/10ScSn-Dmd^mdx/J (mdx), mouse, blood, po, 10 mg/kg, blood, 10 mg/kg single oral dose, read-out: Cmax): 170 ng/mL
Cmax ([1]; male, C57BL/10ScSn-Dmd^mdx/J (mdx), mouse, blood, po, 25 mg/kg, blood, 25 mg/kg single oral dose, read-out: Cmax): 639 ng/mL
Cmax ([1]; male, C57BL/10ScSn-Dmd^mdx/J (mdx), mouse, blood, po, 37.5 mg/kg, blood, 37.5 mg/kg single oral dose, read-out: Cmax): 1120 ng/mL
Cmax ([1]; male, C57BL/10ScSn-Dmd^mdx/J (mdx), mouse, plasma, po, 5 mg/kg, plasma, 5 mg/kg single oral dose, read-out: Cmax): 24 ng/mL
Cmax ([1]; male, C57BL/10ScSn-Dmd^mdx/J (mdx), mouse, plasma, po, 10 mg/kg, plasma, 10 mg/kg single oral dose, read-out: Cmax): 96.7 ng/mL
Cmax ([1]; male, C57BL/10ScSn-Dmd^mdx/J (mdx), mouse, plasma, po, 25 mg/kg, plasma, 25 mg/kg single oral dose, read-out: Cmax): 416 ng/mL
Cmax ([1]; male, C57BL/10ScSn-Dmd^mdx/J (mdx), mouse, plasma, po, 37.5 mg/kg, plasma, 37.5 mg/kg single oral dose, read-out: Cmax): 807 ng/mL
Kp ([1]; male, C57BL/10ScSn-Dmd^mdx/J (mdx), mouse, po, 5 mg/kg, 5 mg/kg single oral dose, read-out: AUCtot Muscle/Plasma ratio): 6.2
Kp ([1]; male, C57BL/10ScSn-Dmd^mdx/J (mdx), mouse, po, 10 mg/kg, 10 mg/kg single oral dose, read-out: AUCtot Muscle/Plasma ratio): 5.8
Kp ([1]; male, C57BL/10ScSn-Dmd^mdx/J (mdx), mouse, po, 25 mg/kg, 25 mg/kg single oral dose, read-out: AUCtot Muscle/Plasma ratio): 2.8
Kp ([1]; male, C57BL/10ScSn-Dmd^mdx/J (mdx), mouse, po, 37.5 mg/kg, 37.5 mg/kg single oral dose, read-out: AUCtot Muscle/Plasma ratio): 3.2
Kp ([1]; male, C57BL/10ScSn-Dmd^mdx/J (mdx), mouse, po, 37.5 mg/kg, mean over 5, 10, 25, 37.5 mg/kg oral doses, read-out: AUCtot Muscle/Plasma ratio, mean): ~4.5
Cmax ([1]; male, C57BL/10ScSn-Dmd^mdx/J (mdx), mouse, quadriceps muscle, po, 5 mg/kg, muscle (quadriceps), 5 mg/kg single oral dose, read-out: Cmax): 117 ng/g
Cmax ([1]; male, C57BL/10ScSn-Dmd^mdx/J (mdx), mouse, quadriceps muscle, po, 10 mg/kg, muscle (quadriceps), 10 mg/kg single oral dose, read-out: Cmax): 197 ng/g
Cmax ([1]; male, C57BL/10ScSn-Dmd^mdx/J (mdx), mouse, quadriceps muscle, po, 25 mg/kg, muscle (quadriceps), 25 mg/kg single oral dose, read-out: Cmax): 607 ng/g
Cmax ([1]; male, C57BL/10ScSn-Dmd^mdx/J (mdx), mouse, quadriceps muscle, po, 37.5 mg/kg, muscle (quadriceps), 37.5 mg/kg single oral dose, read-out: Cmax): 1180 ng/g
blood plasma ratio ([1]; male, C57BL/10ScSn-Dmd^mdx/J (mdx), mouse, whole blood and plasma, 10 mg/kg single oral dose, read-out: AUCtot Blood/Plasma ratio): 1.8
AUC [1, 2]: 156 ng·h/mL
Tmax [1, 2]: 3 h
AUC [1, 3]: 458 ng·h/mL
Tmax [1, 3]: 2 h
AUC [1, 4]: 1810 ng·h/mL
Tmax [1, 4]: 1.5 h
AUC [1, 5]: 2180 ng·h/mL
Tmax [1, 5]: 0.5 h
Tmax ([1]; male, C57BL/10ScSn-Dmd^mdx/J (mdx), mouse, muscle (quadriceps), 5 mg/kg single oral dose): 3 h
Tmax ([1]; male, C57BL/10ScSn-Dmd^mdx/J (mdx), mouse, muscle (quadriceps), 10 mg/kg single oral dose): 2 h
Tmax ([1]; male, C57BL/10ScSn-Dmd^mdx/J (mdx), mouse, muscle (quadriceps), 25 mg/kg single oral dose): 2 h
Tmax ([1]; male, C57BL/10ScSn-Dmd^mdx/J (mdx), mouse, muscle (quadriceps), 37.5 mg/kg single oral dose): 0.5 h
AUC [1, 6]: 95.2 ng·h/mL
Tmax [1, 6]: 0.5 h
AUC [1, 7]: 261 ng·h/mL
Tmax [1, 7]: 2 h
AUC [1, 8]: 1230 ng·h/mL
Tmax [1, 8]: 1.5 h
AUC [1, 9]: 1510 ng·h/mL
Tmax [1, 9]: 0.5 h
AUCtot Muscle/Plasma ratio, mean ([1]; mean over 5, 10, 25, 37.5 mg/kg oral doses, listed as ITF2357): 4.5
AUCtot ([1]; muscle (quadriceps), 5 mg/kg single oral dose): 594.4 ng·h/g
AUCtot ([1]; muscle (quadriceps), 10 mg/kg single oral dose): 1511.9 ng·h/g
AUCtot ([1]; muscle (quadriceps), 25 mg/kg single oral dose): 3511.2 ng·h/g
AUCtot ([1]; muscle (quadriceps), 37.5 mg/kg single oral dose): 4804.6 ng·h/g
Cmax ([1]; plasma, 5 mg/kg single oral dose, listed as ITF2357, 5 mg/kg): 24.17 ng/mL
Cmax ([1]; plasma, 37.5 mg/kg single oral dose, listed as ITF2357, 37.5 mg/kg): 807.39 ng/mL
Structure (SMILES): CCN(CC)Cc1ccc2cc(COC(=O)Nc3ccc(C(=O)NO)cc3)ccc2c1 [Givinostat]
Detectability in plasma, blood and muscle samples after oral treatment ([1]; all doses investigated (5-37.5 mg/kg p.o.)): detectable in all plasma, blood, and muscle samples up to 6 h
Histological evaluation of inflammatory infiltrate, adipose tissue deposition, regeneration, degeneration (mdx mice): not significantly different among the treatment groups
